ChEMBL document CHEMBL3351560, “Pyrazolone-quinazolone hybrids: a novel class of human 4-hydroxyphenylpyruvate dioxygenase inhibitors” (Bioorg Med Chem, 2014)

Target: T1, 4-hydroxyphenylpyruvate dioxygenase (Homo sapiens, UniProt P32754)
Test: Inhibition of purified His6-tagged recombinant human HPPD assessed as inhibition of maleylacetoacetate formation after 30 mins by UV/visible spectrophotometry
Target sequence in this assay (P32754 whole entry): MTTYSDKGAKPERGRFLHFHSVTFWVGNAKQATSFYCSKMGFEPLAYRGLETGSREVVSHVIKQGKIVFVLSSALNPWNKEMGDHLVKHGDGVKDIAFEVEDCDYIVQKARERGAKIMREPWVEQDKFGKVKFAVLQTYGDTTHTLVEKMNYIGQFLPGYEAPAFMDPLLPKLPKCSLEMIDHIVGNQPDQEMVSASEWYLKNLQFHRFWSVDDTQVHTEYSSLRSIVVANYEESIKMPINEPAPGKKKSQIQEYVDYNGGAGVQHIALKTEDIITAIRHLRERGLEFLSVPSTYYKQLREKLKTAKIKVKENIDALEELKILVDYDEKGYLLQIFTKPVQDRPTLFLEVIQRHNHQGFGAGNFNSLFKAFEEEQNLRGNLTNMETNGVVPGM

Row | SMILES | Ki [nM]
1 | COc1ccc(-n2c(C)nc3ccc(C(=O)c4cnn(C)c4O)cc3c2=O)cc1 | 60
2 | Cc1nc2ccc(C(=O)c3cnn(C)c3O)cc2c(=O)n1-c1cccc(F)c1 | 20
3 | Cc1nc2ccc(C(=O)c3cnn(C)c3O)cc2c(=O)n1-c1ccccc1 | 19
4 | Cc1ccc(-n2c(C)nc3ccc(C(=O)c4cnn(C)c4O)cc3c2=O)c(C)c1 | 59
5 | Cc1nn(C)c(O)c1C(=O)c1ccc2nc(C)n(-c3ccc(Cl)cc3)c(=O)c2c1 | 237
6 | Cc1cc(F)ccc1-n1c(C)nc2ccc(C(=O)c3cnn(C)c3O)cc2c1=O | 40
7 | Cc1nn(C)c(O)c1C(=O)c1ccc2nc(C)n(-c3cccc(Cl)c3)c(=O)c2c1 | 173
8 | Cc1ccc(-n2c(C)nc3ccc(C(=O)c4cnn(C)c4O)cc3c2=O)c(Br)c1 | 11
9 | Cc1ccc(-n2c(C)nc3ccc(C(=O)c4cnn(C)c4O)cc3c2=O)c(F)c1 | 170
10 | Cc1ccc(-n2c(C)nc3ccc(C(=O)c4cnn(C)c4O)cc3c2=O)c(Cl)c1 | 90
11 | Cc1ccc(-n2c(C)nc3ccc(C(=O)c4c(C)nn(C)c4O)cc3c2=O)c(Cl)c1 | 109
12 | Cc1ccc(-n2c(C)nc3ccc(C(=O)c4cnn(C)c4O)cc3c2=O)cc1 | 25
13 | COc1ccc(-n2c(C)nc3ccc(C(=O)c4c(C)nn(C)c4O)cc3c2=O)cc1 | 238
14 | Cc1ccc(-n2c(C)nc3ccc(C(=O)c4c(C)nn(C)c4O)cc3c2=O)cc1 | 156
15 | Cc1nc2ccc(C(=O)c3cnn(C)c3O)cc2c(=O)n1-c1cccc(Cl)c1 | 10
16 | Cc1nc2ccc(C(=O)c3cnn(C)c3O)cc2c(=O)n1-c1ccc(Cl)c(Cl)c1 | 25
17 | Cc1ccc(-n2c(C)nc3ccc(C(=O)c4c(C)nn(C)c4O)cc3c2=O)c(Br)c1 | 87
18 | COc1cccc(-n2c(C)nc3ccc(C(=O)c4cnn(C)c4O)cc3c2=O)c1 | 34
19 | Cc1nc2ccc(C(=O)c3cnn(C)c3O)cc2c(=O)n1-c1cccc(Br)c1 | 14
20 | Cc1cccc(-n2c(C)nc3ccc(C(=O)c4cnn(C)c4O)cc3c2=O)c1 | 13
21 | Cc1ccc(-n2c(C)nc3ccc(C(=O)c4c(C)nn(C)c4O)cc3c2=O)c(F)c1 | 81
22 | Cc1ccccc1-n1c(C)nc2ccc(C(=O)c3cnn(C)c3O)cc2c1=O | 58

Row | SMILES | Ki [nM]
23 | Cc1nn(C)c(O)c1C(=O)c1ccc2nc(C)n(-c3ccccc3Cl)c(=O)c2c1 | 86
24 | Cc1cccc(-n2c(C)nc3ccc(C(=O)c4c(C)nn(C)c4O)cc3c2=O)c1 | 74
25 | Cc1nc2ccc(C(=O)c3cnn(C)c3O)cc2c(=O)n1-c1ccccc1Cl | 22
26 | Cc1cc(F)ccc1-n1c(C)nc2ccc(C(=O)c3c(C)nn(C)c3O)cc2c1=O | 219
27 | Cc1cc(Cl)ccc1-n1c(C)nc2ccc(C(=O)c3cnn(C)c3O)cc2c1=O | 32
28 | Cc1nc2ccc(C(=O)c3cnn(C)c3O)cc2c(=O)n1-c1ccc(F)cc1 | 34
29 | Cc1nn(C)c(O)c1C(=O)c1ccc2nc(C)n(-c3ccccc3F)c(=O)c2c1 | 79
30 | Cc1nc2ccc(C(=O)c3cnn(C)c3O)cc2c(=O)n1-c1ccc(Cl)cc1 | 22
31 | Cc1nn(C)c(O)c1C(=O)c1ccc2nc(C)n(-c3cccc(F)c3)c(=O)c2c1 | 90
32 | Cc1nc2ccc(C(=O)c3cnn(C)c3O)cc2c(=O)n1-c1ccc(Br)cc1 | 18
33 | Cc1ccccc1-n1c(C)nc2ccc(C(=O)c3c(C)nn(C)c3O)cc2c1=O | 248
34 | Cc1nn(C)c(O)c1C(=O)c1ccc2nc(C)n(-c3ccc(Br)cc3)c(=O)c2c1 | 130
35 | Cc1nc2ccc(C(=O)c3cnn(C)c3O)cc2c(=O)n1-c1ccccc1Br | 24
36 | Cc1ccc(-n2c(C)nc3ccc(C(=O)c4c(C)nn(C)c4O)cc3c2=O)c(C)c1 | 161
37 | Cc1nn(C)c(O)c1C(=O)c1ccc2nc(C)n(-c3ccc(F)cc3)c(=O)c2c1 | 247
38 | Cc1nc2ccc(C(=O)c3cnn(C)c3O)cc2c(=O)n1-c1cccc(OC(F)(F)F)c1 | 31
39 | Cc1nc2ccc(C(=O)c3cnn(C)c3O)cc2c(=O)n1-c1ccccc1F | 15
40 | Cc1nc2ccc(C(=O)c3cnn(C)c3O)cc2c(=O)n1-c1ccc(OC(F)(F)F)cc1 | 160
41 | Cc1cc(Cl)ccc1-n1c(C)nc2ccc(C(=O)c3c(C)nn(C)c3O)cc2c1=O | 177
42 | Cc1nn(C)c(O)c1C(=O)c1ccc2nc(C)n(-c3cccc(Br)c3)c(=O)c2c1 | 93
43 | COc1ccccc1-n1c(C)nc2ccc(C(=O)c3c(C)nn(C)c3O)cc2c1=O | 207
44 | COc1ccccc1-n1c(C)nc2ccc(C(=O)c3cnn(C)c3O)cc2c1=O | 38

Target: T1, 4-hydroxyphenylpyruvate dioxygenase
Test: Ratio of Nitisinone Ki to compound Ki for purified His6-tagged recombinant human HPPD assessed as inhibition of maleylacetoacetate formation after 30 mins by UV/visible spectrophotometry
Target sequence in this assay (P32754 2-393 limits assumed): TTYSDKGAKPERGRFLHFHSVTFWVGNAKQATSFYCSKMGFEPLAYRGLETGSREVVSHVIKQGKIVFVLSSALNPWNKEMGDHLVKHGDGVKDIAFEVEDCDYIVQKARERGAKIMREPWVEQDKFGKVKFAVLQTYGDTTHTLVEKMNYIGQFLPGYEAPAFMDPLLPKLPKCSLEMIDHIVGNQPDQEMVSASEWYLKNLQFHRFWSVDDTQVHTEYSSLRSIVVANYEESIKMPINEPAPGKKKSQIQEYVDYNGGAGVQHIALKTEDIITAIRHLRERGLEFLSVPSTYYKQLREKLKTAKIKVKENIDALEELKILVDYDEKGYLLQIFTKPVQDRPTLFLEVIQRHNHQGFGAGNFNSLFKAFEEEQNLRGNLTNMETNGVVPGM

Row | SMILES | Ratio Ki
45 | Cc1ccc(-n2c(C)nc3ccc(C(=O)c4cnn(C)c4O)cc3c2=O)c(Br)c1 | 3
46 | Cc1nc2ccc(C(=O)c3cnn(C)c3O)cc2c(=O)n1-c1cccc(Cl)c1 | 3
